Test results taken from doi:10.1101/2020.05.01.070730v2 (biorxiv, 2021).

Target: MutS (Pseudomonas aeruginosa, UniProt Q9HY08)
Test: biochemical

Sequence of MutS (Q9HY08 whole entry): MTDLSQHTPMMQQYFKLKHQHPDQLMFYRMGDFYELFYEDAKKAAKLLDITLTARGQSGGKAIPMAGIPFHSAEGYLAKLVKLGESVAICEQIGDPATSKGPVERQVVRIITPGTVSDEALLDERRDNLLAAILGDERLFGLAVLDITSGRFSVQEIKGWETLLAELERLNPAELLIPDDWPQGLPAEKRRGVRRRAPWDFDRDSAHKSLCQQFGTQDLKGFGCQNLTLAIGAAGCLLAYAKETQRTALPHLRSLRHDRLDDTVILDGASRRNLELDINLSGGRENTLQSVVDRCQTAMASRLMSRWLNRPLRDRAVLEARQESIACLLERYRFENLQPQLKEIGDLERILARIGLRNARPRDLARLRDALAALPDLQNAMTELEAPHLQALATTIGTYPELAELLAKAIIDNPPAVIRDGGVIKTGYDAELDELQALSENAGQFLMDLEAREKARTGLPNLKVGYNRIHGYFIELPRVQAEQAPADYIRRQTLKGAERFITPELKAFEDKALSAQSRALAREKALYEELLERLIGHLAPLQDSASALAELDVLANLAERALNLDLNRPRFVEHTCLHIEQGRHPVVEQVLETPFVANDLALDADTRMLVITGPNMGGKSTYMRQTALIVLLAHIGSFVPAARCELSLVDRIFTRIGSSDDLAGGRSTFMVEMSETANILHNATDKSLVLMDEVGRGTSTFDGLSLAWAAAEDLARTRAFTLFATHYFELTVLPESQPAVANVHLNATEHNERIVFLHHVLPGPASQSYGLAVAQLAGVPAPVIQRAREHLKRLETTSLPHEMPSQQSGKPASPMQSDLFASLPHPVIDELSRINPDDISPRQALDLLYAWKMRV

Nc1ncnc2c1ncn2[C@@H]1O[C@H](COP(=O)(O)OP(=O)(O)OP(=O)(O)O)[C@@H](O)[C@H]1O [ATP]
EC50: 618 ± 49 µM
